{"source": "BindingDB's records for doi:10.1021/acs.jmedchem.8b00435", "about": "(Shanghaitech University, 2018)", "note": "pEC50: −log10 of the molar value."}
{"assay": "Agonist activity at adenosine A3 receptor (unknown origin) expressed in serum starved CHO cells assessed as increase in cell survival after 24 hrs by propidium iodide staining-based assay"}
{"smiles": "CNC(=O)[C@@]12C[C@@H]1[C@@H](n1cnc3c(NCc4cccc(Cl)c4)nc(C#Cc4ccc(-c5ccccc5)cc4)nc31)[C@H](O)[C@@H]2O", "pEC50": 9.60}
{"smiles": "CNC(=O)[C@@]12C[C@@H]1[C@@H](n1cnc3c(NCc4cccc(Cl)c4)nc(C#Cc4ccccc4)nc31)[C@H](O)[C@@H]2O", "pEC50": 9.70}
{"smiles": "CNC(=O)[C@@]12C[C@@H]1[C@@H](n1cnc3c(NCc4cccc(Cl)c4)nc(C#Cc4ccc5ccc6cccc7ccc4c5c67)nc31)[C@H](O)[C@@H]2O", "pEC50": 7.89}
{"smiles": "CNC(=O)[C@@]12C[C@@H]1[C@@H](n1cnc3c(NCc4cccc(Cl)c4)nc(C#Cc4cc5cccc6ccc7cccc4c7c65)nc31)[C@H](O)[C@@H]2O", "pEC50": 7.70}
